According to ChEMBL document CHEMBL1201862, “PubChem BioAssay data set” (2004):
Active and inactive are the calls of the source.

Columns and labels:
[1] = molecular target: DNA dC->dU-editing enzyme APOBEC-3G (Homo sapiens, UniProt Q9HC16); assay: Dose Response confirmation of small molecule APOBEC3G DNA Deaminase Inhibitors via a fluorescence-based single-stranded DNA deaminase assay. [Related pubchem assays (depositor defined):AID493012, AID493028]; format: functional
[2] = molecular target: T1, Rac GTPase-activating protein 1 (Homo sapiens, UniProt Q9H0H5); assay: MgcRacGAP GTPase-activating activity inhibitors, confirmation, biochemical, ADP Hunter fluorescence, primary and confirmatory (AID 624330); format: functional
T1 sequence (Q9H0H5 whole entry): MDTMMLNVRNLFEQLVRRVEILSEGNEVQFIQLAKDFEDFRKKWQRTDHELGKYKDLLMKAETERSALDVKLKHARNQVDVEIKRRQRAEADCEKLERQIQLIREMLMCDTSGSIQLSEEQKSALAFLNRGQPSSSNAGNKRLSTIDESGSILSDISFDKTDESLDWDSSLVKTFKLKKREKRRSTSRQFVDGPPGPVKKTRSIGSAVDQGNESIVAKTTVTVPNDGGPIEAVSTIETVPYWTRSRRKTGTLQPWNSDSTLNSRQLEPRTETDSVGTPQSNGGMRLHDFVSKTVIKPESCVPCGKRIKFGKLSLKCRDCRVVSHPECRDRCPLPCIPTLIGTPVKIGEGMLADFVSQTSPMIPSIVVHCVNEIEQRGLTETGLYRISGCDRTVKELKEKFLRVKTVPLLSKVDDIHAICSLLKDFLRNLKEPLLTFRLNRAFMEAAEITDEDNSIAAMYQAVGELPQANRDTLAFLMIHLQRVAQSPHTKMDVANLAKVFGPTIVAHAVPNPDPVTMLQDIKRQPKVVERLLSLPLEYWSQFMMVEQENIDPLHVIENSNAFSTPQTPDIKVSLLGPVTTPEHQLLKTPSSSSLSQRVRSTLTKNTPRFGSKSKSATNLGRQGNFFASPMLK

cells [3] = format: functional, cell-based
cells [4] = format: functional, cell-based; remark: listed apart in the source
[5] = cytotoxicity in HEK-293T cells, dose response, cytotoxicity control for BCR NF-kB inhibitor project, luminescence, B-cell screen hits (AID 489021); format: functional, cell-based;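 also: HEK-293T cells carrying an NF-kB luciferase reporter; cells exposed to compound for about 14 hours before viability readout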
[6] = molecular target: T2, Microphthalmia-associated transcription factor (Homo sapiens, UniProt O75030); assay: TRPM1 promoter luciferase signal decrease, dose response, MITF inhibitor project, cell-based, SK-MEL-5, cherry-picked, set 3 (AID 493073); format: functional
T2 sequence (O75030 whole entry): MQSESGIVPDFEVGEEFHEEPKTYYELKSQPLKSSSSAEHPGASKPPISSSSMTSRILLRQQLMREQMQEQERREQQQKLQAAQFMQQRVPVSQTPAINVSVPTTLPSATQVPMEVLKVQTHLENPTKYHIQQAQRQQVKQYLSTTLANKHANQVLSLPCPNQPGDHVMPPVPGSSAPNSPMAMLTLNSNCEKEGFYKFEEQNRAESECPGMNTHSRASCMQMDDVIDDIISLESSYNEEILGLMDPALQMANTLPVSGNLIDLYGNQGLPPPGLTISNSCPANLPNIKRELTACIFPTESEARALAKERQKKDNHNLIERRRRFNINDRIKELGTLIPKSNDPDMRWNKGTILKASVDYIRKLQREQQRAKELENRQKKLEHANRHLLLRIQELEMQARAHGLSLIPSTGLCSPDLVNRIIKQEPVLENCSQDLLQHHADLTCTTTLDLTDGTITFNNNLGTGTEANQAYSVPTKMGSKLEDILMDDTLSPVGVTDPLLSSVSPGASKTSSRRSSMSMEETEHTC

Large T antigen = Large T antigen (Simian virus 40, UniProt P03070); format: functional, Betapolyomavirus macacae;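 also: Confirmatory-stage PubChem screen for compounds that inhibit SV40 T antigen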
Sequence of Large T antigen (P03070 whole entry): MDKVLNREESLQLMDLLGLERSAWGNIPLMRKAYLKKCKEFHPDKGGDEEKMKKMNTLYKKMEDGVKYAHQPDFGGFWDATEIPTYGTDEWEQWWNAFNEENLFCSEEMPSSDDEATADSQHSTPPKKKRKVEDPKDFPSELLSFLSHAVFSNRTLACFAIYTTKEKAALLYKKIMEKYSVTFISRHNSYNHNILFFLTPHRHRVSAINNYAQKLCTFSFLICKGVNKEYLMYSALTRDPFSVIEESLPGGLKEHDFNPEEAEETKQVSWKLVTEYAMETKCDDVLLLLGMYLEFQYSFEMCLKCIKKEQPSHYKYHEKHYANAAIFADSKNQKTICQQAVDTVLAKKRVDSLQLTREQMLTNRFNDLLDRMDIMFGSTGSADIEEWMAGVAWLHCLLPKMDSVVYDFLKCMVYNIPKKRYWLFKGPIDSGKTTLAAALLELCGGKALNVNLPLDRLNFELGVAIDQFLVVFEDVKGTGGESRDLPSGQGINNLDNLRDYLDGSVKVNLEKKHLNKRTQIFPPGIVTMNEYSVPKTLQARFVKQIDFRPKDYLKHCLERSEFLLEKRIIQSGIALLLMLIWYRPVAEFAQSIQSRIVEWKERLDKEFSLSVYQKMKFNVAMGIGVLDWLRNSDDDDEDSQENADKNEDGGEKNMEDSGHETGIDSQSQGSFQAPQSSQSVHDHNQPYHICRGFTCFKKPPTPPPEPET

[7] = molecular target: T3, Endoribonuclease toxin MazF (Escherichia coli K-12, UniProt P0AE70); assay: MazF toxin RNase activators, dose response, biochemical, fluorescence, single-stranded RNA substrate, uHTS hits (AID 588481); format: functional
T3 sequence (P0AE70 whole entry): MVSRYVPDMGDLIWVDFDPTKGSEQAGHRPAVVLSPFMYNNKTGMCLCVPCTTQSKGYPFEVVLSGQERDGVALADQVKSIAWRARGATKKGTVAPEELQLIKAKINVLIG

[8] = molecular target: T3, Endoribonuclease toxin MazF; assay: fluorescent RNA oligo signal without MazF, dose response, counter-screen for MazEF activator project, biochemical, fluorescence, single-stranded RNase substrate (AID 588502); format: functional
[9] = HepG2 cell cytotoxicity, dose response, cytotoxicity control, plate reader, cherry-pick, antagonist series (AID 743416); format: functional, cell-based
[10] = LGR2 antagonists, dose response, cell-based, HEK293, CRE-luciferase reporter, cherry pick, set 2 (AID 743343); format: functional;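 also: transfected cells were stimulated with diluted bursicon conditioned medium after compound addition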
[11] = MC4R antagonists, dose response, counter-screen for LGR2 antagonist project, cell-based, plate reader, cherry pick (AID 743444); format: functional;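 also: transfected HEK 293 cells stimulated with alpha-MSH peptide; potency of inhibitors of the alpha-MSH evoked signal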
Cytochrome P450 2D6 = Cytochrome P450 2D6 (Homo sapiens, UniProt P10635);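 also: CYP2D6 member of a cytochrome P450 panel assay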
Sequence of Cytochrome P450 2D6 (P10635 whole entry): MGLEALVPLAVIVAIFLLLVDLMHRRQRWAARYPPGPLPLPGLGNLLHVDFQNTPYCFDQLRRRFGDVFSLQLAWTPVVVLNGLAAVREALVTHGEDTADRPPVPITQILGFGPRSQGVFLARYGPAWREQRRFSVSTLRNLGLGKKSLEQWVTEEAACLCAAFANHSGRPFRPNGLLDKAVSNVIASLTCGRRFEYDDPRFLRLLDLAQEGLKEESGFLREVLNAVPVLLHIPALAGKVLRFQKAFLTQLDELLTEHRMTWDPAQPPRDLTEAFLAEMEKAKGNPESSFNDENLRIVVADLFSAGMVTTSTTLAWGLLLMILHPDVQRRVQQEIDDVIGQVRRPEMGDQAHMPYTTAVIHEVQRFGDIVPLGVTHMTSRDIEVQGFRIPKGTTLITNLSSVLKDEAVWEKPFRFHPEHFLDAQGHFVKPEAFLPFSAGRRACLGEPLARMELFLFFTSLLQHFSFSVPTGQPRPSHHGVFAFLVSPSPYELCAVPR

Cytochrome P450 2C9 = Cytochrome P450 2C9 (Homo sapiens, UniProt P11712)
Sequence of Cytochrome P450 2C9 (P11712 whole entry): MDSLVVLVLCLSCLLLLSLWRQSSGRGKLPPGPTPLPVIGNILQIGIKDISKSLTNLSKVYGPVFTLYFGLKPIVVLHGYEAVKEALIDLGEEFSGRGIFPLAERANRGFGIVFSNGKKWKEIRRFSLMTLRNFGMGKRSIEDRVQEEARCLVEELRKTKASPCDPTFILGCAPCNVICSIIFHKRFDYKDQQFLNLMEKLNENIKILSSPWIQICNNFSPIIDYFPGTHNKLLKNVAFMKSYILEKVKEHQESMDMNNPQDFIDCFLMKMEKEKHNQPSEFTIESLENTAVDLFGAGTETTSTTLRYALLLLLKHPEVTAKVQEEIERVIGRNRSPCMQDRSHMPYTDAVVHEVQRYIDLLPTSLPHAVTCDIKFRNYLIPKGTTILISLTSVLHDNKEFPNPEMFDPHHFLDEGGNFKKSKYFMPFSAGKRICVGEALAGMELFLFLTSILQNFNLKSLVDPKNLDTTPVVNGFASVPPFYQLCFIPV

Sequence of DNA dC->dU-editing enzyme APOBEC-3G (Q9HC16 whole entry): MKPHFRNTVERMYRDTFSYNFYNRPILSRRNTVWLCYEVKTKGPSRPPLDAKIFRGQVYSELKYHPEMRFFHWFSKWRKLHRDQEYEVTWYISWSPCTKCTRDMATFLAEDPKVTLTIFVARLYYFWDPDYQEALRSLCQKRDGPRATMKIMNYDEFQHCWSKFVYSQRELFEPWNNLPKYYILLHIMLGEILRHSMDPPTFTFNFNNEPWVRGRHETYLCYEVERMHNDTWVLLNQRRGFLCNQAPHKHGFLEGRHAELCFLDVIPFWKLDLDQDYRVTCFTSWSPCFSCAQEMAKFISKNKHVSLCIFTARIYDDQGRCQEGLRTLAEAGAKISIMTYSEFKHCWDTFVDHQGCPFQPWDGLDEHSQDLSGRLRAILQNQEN

Nc1ccccc1SSc1ccccc1N
IC50 [1]: 25.8 µM (active)
IC50 [2]: 86.1 µM (active)

C=C(C)CNC(=O)c1ccc2nc(Cc3ccc(OC)cc3)oc2c1
EC50 (cells [3]): > 350 µM (not active)
EC50 (cells [4]): 15.1 µM (active)

COC(=O)Cc1sc(-c2ccccn2)nc1-c1ccccc1
IC50 [1]: 41.1 µM (active)

Cc1cc2ccccn2c1C(=O)c1ccc(NN)c([N+](=O)[O-])c1
IC50 [5]: > 80 µM (inactive)

COCCCNC(=O)COc1ccc(-c2nccc(-c3ccccn3)n2)cc1
IC50 [5]: > 80 µM (inactive)

CCC1CCc2sc(C(=O)O)cc2C1 (stereo not drawn)
EC50 (cells [3]): > 350 µM (not active)
EC50 (cells [4]): > 350 µM (not active)

CN(C)S(=O)(=O)c1ccc(NC(=O)N2CCN(c3ccccc3)CC2)cc1
IC50 [5]: > 80 µM (inactive)

O=C1NC(=O)N(Cc2ccccc2Cl)C(=O)/C1=C/c1cccs1
AC50 [6]: 29.7 µM (active)

Cc1cc(O)nc2c(C)cc(S(=O)(=O)N3CCCCC3)cc12
IC50 [5]: > 80 µM (inactive)

C[C@@H]1O[C@@H](OC2C(O)C(OCCc3ccc(O)c(O)c3)OC(CO)C2OC(=O)/C=C/c2ccc(O)c(O)c2)[C@H](O)[C@H](O)[C@H]1O (stereo partly drawn)
IC50 (Large T antigen): 3.26 µM (active)

O=C(CCCCl)NC1=NN(c2ccccc2)C(=O)C1
IC50 (Large T antigen): 30.9 µM (active)

CCN(CC)S(=O)(=O)c1ccc(C(=O)/C=C/c2ccc(-c3ccc([N+](=O)[O-])cc3)o2)cc1
EC50 [7]: > 99 µM (inactive)
EC50 [8]: > 99 µM (inactive)

COc1ccc2c(C)cc3n[nH]c(=S)n3c2c1
IC50 [1]: > 100 µM (inactive)
IC50 [2]: 20.6 µM (active)

COc1cccc(-c2cc(C(=O)Nc3cccc(O)c3)no2)c1
AC50 [9]: 42.3 µM (active)
AC50 [10]: 7.52 µM (active)
AC50 [11]: 8.73 µM (active)
AC50 (Cytochrome P450 2D6): 22.4 µM (inconclusive)
AC50 (Cytochrome P450 2C9): inconclusive

c1ccc(COc2ccc(OCCCN3CCCC3)cc2)cc1
AC50 [9]: > 52 µM (inactive)
AC50 [10]: 0.751 µM (active)
AC50 [11]: 1.19 µM (active)

CC1(C)O[C@@H]2[C@H](O1)[C@@H](COS(=O)(=O)O)O[C@H]2n1c(S)nc2c(O)nc(N)nc21
IC50 [1]: 34.8 µM (active)
IC50 [2]: 53.7 µM (active)
